Residues, ends and D or L forms follow the SMILES beside them. *: point of attachment. FITC = O=C1OC2(c3ccc(O)cc3Oc3cc(O)ccc32)c2ccc(NC(=S)*)cc21

The record followed here is US11872262B2, “Means and methods for treating bacterial infections” (VIB VZW, priority 2017, dated 2024).

The first series concerns E. coli O157:H7.
Assay: not given
The class given is cell-based, Escherichia coli. Conditions: screening-stage peptides tested at 1, 6, 12 and 25 μg/mL. The method in brief: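 Tandem-repeat aggregation-prone-region peptides from DMSO stocks were tested for growth inhibition of E. coli O157:H7 at 1, 6, 12 and 25 μg/mL.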
Regarding `CC(C)C[C@H](NC(=O)[C@H](C)NC(=O)[C@H](CCCNC(=N)N)NC(=O)[C@@H]1CCCN1C(=O)[C@H](CCCNC(=N)N)NC(=O)[C@H](CCCNC(=N)N)NC(=O)[C@H](CC(C)C)NC(=O)[C@H](CC(C)C)NC(=O)[C@H](C)NC(=O)[C@@H](NC(=O)[C@H](C)NC(=O)[C@H](CC(C)C)NC(=O)[C@H](C)NC(=O)[C@@H](N)CCCNC(=N)N)C(C)C)C(=O)N[C@@H](C)C(=O)N[C@H](C(=O)N[C@@H](C)C(=O)N[C@@H](CC(C)C)C(=O)N[C@@H](CC(C)C)C(=O)N[C@@H](CCCNC(=N)N)C(=O)N[C@@H](CCCNC(=N)N)C(=O)O)C(C)C` [Peptide P12] (H-RALAVALLRRPRALAVALLRR-OH; N-terminus and C-terminus assumed), the “E. coli O157 (apparent MIC in screen)” value came to 25 µg/mL.

Take `CC(C)C[C@H](NC(=O)CNC(=O)[C@H](CC(C)C)NC(=O)[C@@H](NC(=O)[C@H](C)NC(=O)[C@H](CCCNC(=N)N)NC(=O)[C@@H]1CCCN1C(=O)[C@H](CCCNC(=N)N)NC(=O)[C@H](CCCNC(=N)N)NC(=O)[C@H](C)NC(=O)[C@H](CC(C)C)NC(=O)[C@H](CC(C)C)NC(=O)[C@H](CCCNC(=N)N)NC(=O)[C@H](CC(C)C)NC(=O)[C@@H](NC(=O)[C@H](C)NC(=O)[C@@H](N)CCCNC(=N)N)C(C)C)C(C)C)C(=O)N[C@@H](CC(C)C)C(=O)N[C@@H](C)C(=O)N[C@@H](CCCNC(=N)N)C(=O)N[C@@H](CCCNC(=N)N)C(=O)O` [Peptide P113] (H-RAVLRLLARRPRAVLGLLARR-OH; N-terminus and C-terminus assumed): the “E. coli O157 (apparent MIC in screen)” value is 25 µg/mL.

Consider `CC[C@H](C)[C@H](NC(=O)CNC(=O)[C@@H](NC(=O)[C@H](CC(C)C)NC(=O)[C@H](CCCNC(=N)N)NC(=O)[C@@H]1CCCN1C(=O)[C@H](CCCNC(=N)N)NC(=O)[C@H](CCCNC(=N)N)NC(=O)CNC(=O)[C@H](CC(C)C)NC(=O)[C@H](C)NC(=O)[C@@H](NC(=O)[C@H](CCCNC(=N)N)NC(=O)[C@@H](NC(=O)[C@H](CC(C)C)NC(=O)[C@@H](N)CCCNC(=N)N)[C@@H](C)CC)[C@@H](C)CC)[C@@H](C)CC)C(=O)N[C@@H](C)C(=O)N[C@@H](CC(C)C)C(=O)NCC(=O)N[C@@H](CCCNC(=N)N)C(=O)N[C@@H](CCCNC(=N)N)C(=O)O` [Peptide P115] (H-RLIRIALGRRPRLIGIALGRR-OH; N-terminus and C-terminus assumed), for which the “E. coli O157 (apparent MIC in screen)” value is 25 µg/mL.

On to `CC(C)C[C@H](NC(=O)[C@H](C)NC(=O)[C@@H](N)CCCNC(=N)N)C(=O)N[C@@H](CC(C)C)C(=O)N[C@H](C(=O)N[C@@H](C)C(=O)N[C@@H](CCCNC(=N)N)C(=O)N[C@@H](CC(C)C)C(=O)N[C@@H](CCCNC(=N)N)C(=O)N[C@@H](CCCNC(=N)N)C(=O)N1CCC[C@H]1C(=O)N[C@@H](CCCNC(=N)N)C(=O)N[C@@H](C)C(=O)N[C@@H](CC(C)C)C(=O)N[C@@H](CC(C)C)C(=O)N[C@H](C(=O)N[C@@H](C)C(=O)N[C@H](C(=O)N[C@@H](CC(C)C)C(=O)N[C@@H](CCCNC(=N)N)C(=O)N[C@@H](CCCNC(=N)N)C(=O)O)C(C)C)[C@@H](C)O)[C@@H](C)O` [Peptide P91] (H-RALLTARLRRPRALLTAVLRR-OH; N-terminus and C-terminus assumed), for which the “E. coli O157 (apparent MIC in screen)” value was 25 µg/mL.

For the compound `CC(C)C[C@H](NC(=O)[C@H](C)NC(=O)[C@H](CCCNC(=N)N)NC(=O)[C@@H]1CCCN1C(=O)[C@H](CCCNC(=N)N)NC(=O)[C@H](CCCNC(=N)N)NC(=O)[C@H](CC(C)C)NC(=O)[C@H](CC(C)C)NC(=O)[C@H](CC(C)C)NC(=O)[C@H](CO)NC(=O)[C@@H](NC(=O)[C@H](CC(C)C)NC(=O)[C@H](C)NC(=O)[C@@H](N)CCCNC(=N)N)C(C)C)C(=O)N[C@H](C(=O)N[C@@H](CO)C(=O)N[C@@H](CC(C)C)C(=O)N[C@@H](CC(C)C)C(=O)N[C@@H](CC(C)C)C(=O)N[C@@H](CCCNC(=N)N)C(=O)N[C@@H](CCCNC(=N)N)C(=O)O)C(C)C` [Peptide P58] (H-RALVSLLLRRPRALVSLLLRR-OH; N-terminus and C-terminus assumed), the “E. coli O157 (apparent MIC in screen)” value came to 12 µg/mL.

`CC(C)C[C@H](NC(=O)CNC(=O)[C@H](CC(C)C)NC(=O)[C@@H](NC(=O)[C@H](C)NC(=O)[C@H](CCCNC(=N)N)NC(=O)[C@@H]1CCCN1C(=O)[C@H](CCCNC(=N)N)NC(=O)[C@H](CCCNC(=N)N)NC(=O)[C@H](C)NC(=O)[C@H](CC(C)C)NC(=O)[C@H](CC(C)C)NC(=O)CNC(=O)[C@H](CCCNC(=N)N)NC(=O)[C@@H](NC(=O)[C@H](C)NC(=O)[C@@H](N)CCCNC(=N)N)C(C)C)C(C)C)C(=O)N[C@@H](CC(C)C)C(=O)N[C@@H](C)C(=O)N[C@@H](CCCNC(=N)N)C(=O)N[C@@H](CCCNC(=N)N)C(=O)O` [Peptide P88] (H-RAVRGLLARRPRAVLGLLARR-OH; N-terminus and C-terminus assumed): the “E. coli O157 (apparent MIC in screen)” value was 25 µg/mL.

For `CC(C)C[C@H](NC(=O)[C@H](C)NC(=O)[C@H](CC(C)C)NC(=O)[C@H](CCCNC(=N)N)NC(=O)[C@@H]1CCCN1C(=O)[C@H](CCCNC(=N)N)NC(=O)[C@H](CCCNC(=N)N)NC(=O)[C@H](CC(C)C)NC(=O)[C@H](CC(C)C)NC(=O)[C@H](CC(C)C)NC(=O)[C@H](CCCNC(=N)N)NC(=O)[C@H](CC(C)C)NC(=O)[C@H](C)NC(=O)[C@H](CC(C)C)NC(=O)[C@@H](N)CCCNC(=N)N)C(=O)N[C@@H](C)C(=O)N[C@@H](CC(C)C)C(=O)N[C@@H](CC(C)C)C(=O)N[C@@H](CC(C)C)C(=O)N[C@@H](CCCNC(=N)N)C(=O)N[C@@H](CCCNC(=N)N)C(=O)O` [Peptide P79] (H-RLALRLLLRRPRLALALLLRR-OH; N-terminus and C-terminus assumed), the “E. coli O157 (apparent MIC in screen)” value was found to be 12 µg/mL.

As to `CC(C)C[C@H](NC(=O)[C@H](CCC(N)=O)NC(=O)[C@H](CCCNC(=N)N)NC(=O)[C@@H]1CCCN1C(=O)[C@H](CCCNC(=N)N)NC(=O)[C@H](CCCNC(=N)N)NC(=O)[C@H](CC(C)C)NC(=O)[C@H](CC(C)C)NC(=O)[C@@H](NC(=O)[C@H](CC(C)C)NC(=O)[C@H](CC(C)C)NC(=O)[C@H](CC(C)C)NC(=O)[C@H](CCC(N)=O)NC(=O)[C@@H](N)CCCNC(=N)N)[C@@H](C)O)C(=O)N[C@@H](CC(C)C)C(=O)N[C@@H](CC(C)C)C(=O)N[C@H](C(=O)N[C@@H](CC(C)C)C(=O)N[C@@H](CC(C)C)C(=O)N[C@@H](CCCNC(=N)N)C(=O)N[C@@H](CCCNC(=N)N)C(=O)O)[C@@H](C)O` [Peptide P72] (H-RQLLLTLLRRPRQLLLTLLRR-OH; N-terminus and C-terminus assumed), the “E. coli O157 (apparent MIC in screen)” value was 25 µg/mL.

In the case of `CC(C)C[C@H](NC(=O)[C@H](C)NC(=O)[C@H](CCCNC(=N)N)NC(=O)[C@@H]1CCCN1C(=O)[C@H](CCCNC(=N)N)NC(=O)[C@H](CCCNC(=N)N)NC(=O)[C@H](CC(C)C)NC(=O)[C@H](CC(C)C)NC(=O)[C@H](C)NC(=O)[C@@H](NC(=O)[C@H](CCCNC(=N)N)NC(=O)[C@H](CC(C)C)NC(=O)[C@H](C)NC(=O)[C@@H](N)CCCNC(=N)N)C(C)C)C(=O)N[C@@H](C)C(=O)N[C@H](C(=O)N[C@@H](C)C(=O)N[C@@H](CC(C)C)C(=O)N[C@@H](CC(C)C)C(=O)N[C@@H](CCCNC(=N)N)C(=O)N[C@@H](CCCNC(=N)N)C(=O)O)C(C)C` [Peptide P87] (H-RALRVALLRRPRALAVALLRR-OH; N-terminus and C-terminus assumed), the “E. coli O157 (apparent MIC in screen)” value came to 25 µg/mL.

For `CC(C)C[C@H](NC(=O)[C@H](C)NC(=O)[C@H](CC(C)C)NC(=O)[C@@H](NC(=O)[C@@H](NC(=O)[C@H](C)NC(=O)[C@H](CCCNC(=N)N)NC(=O)[C@@H]1CCCN1C(=O)[C@H](CCCNC(=N)N)NC(=O)[C@H](CCCNC(=N)N)NC(=O)[C@H](CC(C)C)NC(=O)[C@H](CC(C)C)NC(=O)[C@H](C)NC(=O)[C@H](CC(C)C)NC(=O)[C@@H](NC(=O)[C@@H](NC(=O)[C@H](C)NC(=O)[C@@H](N)CCCNC(=N)N)[C@@H](C)O)C(C)C)[C@@H](C)O)C(C)C)C(=O)N[C@@H](CC(C)C)C(=O)N[C@@H](CCCNC(=N)N)C(=O)N[C@@H](CCCNC(=N)N)C(=O)O` [Peptide P29] (H-RATVLALLRRPRATVLALLRR-OH; N-terminus and C-terminus assumed), the “E. coli O157 (apparent MIC in screen)” value came to 25 µg/mL.

Test system in a further series: not listed separately
Description: Biodistribution study in healthy animals. The format is in vivo, mice. Conditions: single dose of 10 mg/kg, IP or urinary tract. The protocol:
FIG. 7: Fluorescence imaging of organs ex vivo 3 h after a single injection (10 mg/kg) of Colpeptin1.
Given these positive results, we then established the tolerance of the Swiss mice to the peptide by performing a dose escalation experiment. […] The parameters observed included body weight, food and water consumption, home cage activity and locomotion. […] Based on these observations, we tested the antibacterial efficacy of the colpeptin1 in a mouse bladder infection model. In this model, an inoculum of 50 μL of a 10^8 CFU/mL suspension of E. coli O157:H7 was delivered via the urethra to the bladder of healthy Swiss mice. 1 h post-infection, we administered a single injection of colpeptin1 at 10 mg/kg, either via the urethra (n=15) or intraperitoneally (n=15). 24 h after treatment, the animals were sacrificed and the bacterial titer in kidney, colon, bladder and ureter was determined by plating the macerated tissue (FIG. 2F-l).
Regarding `CC(C)C[C@H](NC(=O)CNC(=O)[C@H](CCCNC(=N)N)NC(=O)[C@@H]1CCCN1C(=O)[C@H](CCCNC(=N)N)NC(=O)[C@H](CCCNC(=N)N)NC(=O)[C@@H](NC(=O)[C@H](CC(C)C)NC(=O)[C@H](C)NC(=O)[C@H](CC(C)C)NC(=O)CNC(=O)[C@H](CC(C)C)NC(=O)CNC(=O)[C@H](CCCNC(=N)N)NC(=S)Nc1ccc2c(c1)C(=O)OC21c2ccc(O)cc2Oc2cc(O)ccc21)C(C)C)C(=O)NCC(=O)N[C@@H](CC(C)C)C(=O)N[C@@H](C)C(=O)N[C@@H](CC(C)C)C(=O)N[C@H](C(=O)N[C@@H](CCCNC(=N)N)C(=O)N[C@@H](CCCNC(=N)N)C(=O)O)C(C)C` [FITC-colpeptin1] ({FITC}-RGLGLALVRRPRGLGLALVRR-OH; N-terminus and C-terminus assumed), the “clearance of the peptide” value is “total clearance of the peptide after 24 h” and the “duration of distribution of fluorescent material after injection” value is “at least 3 h”.
